Measurements taken from US20040127569A1, “Methods for treatment and prevention of gastrointestinal conditions” (priority 2002, published 2004).
Structures can show the parent of a compound that is named as a salt. Where two headings read alike, the source gives them in different places.

Experiments:
i-NOS = i-NOS (Homo sapiens, UniProt P35228); experiment: i-NOS inhibition, comparison with NIL amides; format: biochemical
Human Cartilage = experiment: Human cartilage explant assay (nitrite production, IL-1β induced); format: cell-based; conditions: inhibition of nitrite production, IL-1β stimulated explants
Protocol: Human Cartilage Explant Assay
Bone pieces are rinsed twice with Dulbecco's Phosphate Buffered Saline (GibcoBRL) and once with Dulbecco's Modified Eagles Medium (GibcoBRL) and placed into a petri dish with phenol red free Minimum Essential Medium (MEM) (GibcoBRL). Cartilage was cut into small explants of approximately 15-45 mg in weight and one or two explants per well are placed into either 96 or 48 well culture plates with 200-500 μL of culture media per well. The culture media was either a custom modification of Minimum Essential Medium(Eagle) with Earle's salts (GibcoBRL) prepared without L-Arginine, without L-Glutamine and without phenol red or a custom modification of serumless Neuman and Tytell (GibcoBRL) medium prepared without L-arginine, without insulin, without ascorbic acid, without L-glutamine and without phenol red. Both are supplemented before use with 100 μM L-Arginine (Sigma), 2 mM L-glutamine, 1×HL-1 supplement (BioWhittaker), […] ascorbic acid (Sigma) and 150 pg/ml recombinant human IL-1β (RD Systems) to induce nitric oxide synthase. Compounds are then added in 10 μL aliquots and the explants incubated at 37° C. with 5% CO2 for 18-24 hours. The day old supernatant is then discarded and replaced with fresh culture media containing recombinant human IL-1β and compound and incubated for another 20-24 hours. […] All samples are done in quadruplicate. Unstimulated controls are cultured in media in the absence of recombinant human IL-1β. IC50 values (Table I) are determined from plotting the percent inhibition of nitrite production at six different concentrations of inhibitor.

[1] = system: LPS-induced increase in plasma nitrite/nitrate levels; experiment: In vivo assay: endotoxin-treated rats, plasma nitrite/nitrate; parameters: species or system rat; conditions: oral administration, plasma nitrite/nitrate 5 hours post-treatment
Protocol: Plasma nitrite/nitrate levels can be determined 5 hours post-treatment.

hiNOS = molecular target: T1, hiNOS (Homo sapiens, UniProt P35228); experiment: Assay for time dependent inhibition, hiNOS; format: biochemical; conditions: 60 min preincubation
T1 construct: made in house; host or cells: Sf9 insect cells (baculovirus vector)
Protocol: Assay for Time Dependent Inhibition
Aliquots (10 μL) are removed at 0, 10, 21 and 60 minutes and immediately added to a citrulline assay enzyme reaction mixture containing L-[2,3-^3H]-arginine and a final L-arginine concentration of 30 μM in a final volume of 100 μL. The reaction is allowed to proceed for 15 minutes at 37° C. and terminated by addition of stop buffer and chromatography with Dowex 50W X-8 cation exchange ion exchange resin as described for the citrulline NOS assay. The % inhibition of NOS activity by an inhibitor was taken as the percent inhibition in activity compared to control enzyme preincubated for the same time in the absence of inhibitor.

[2] = Rattus norvegicus, read-out: ED50

i-NOS, sequence (P35228 whole entry): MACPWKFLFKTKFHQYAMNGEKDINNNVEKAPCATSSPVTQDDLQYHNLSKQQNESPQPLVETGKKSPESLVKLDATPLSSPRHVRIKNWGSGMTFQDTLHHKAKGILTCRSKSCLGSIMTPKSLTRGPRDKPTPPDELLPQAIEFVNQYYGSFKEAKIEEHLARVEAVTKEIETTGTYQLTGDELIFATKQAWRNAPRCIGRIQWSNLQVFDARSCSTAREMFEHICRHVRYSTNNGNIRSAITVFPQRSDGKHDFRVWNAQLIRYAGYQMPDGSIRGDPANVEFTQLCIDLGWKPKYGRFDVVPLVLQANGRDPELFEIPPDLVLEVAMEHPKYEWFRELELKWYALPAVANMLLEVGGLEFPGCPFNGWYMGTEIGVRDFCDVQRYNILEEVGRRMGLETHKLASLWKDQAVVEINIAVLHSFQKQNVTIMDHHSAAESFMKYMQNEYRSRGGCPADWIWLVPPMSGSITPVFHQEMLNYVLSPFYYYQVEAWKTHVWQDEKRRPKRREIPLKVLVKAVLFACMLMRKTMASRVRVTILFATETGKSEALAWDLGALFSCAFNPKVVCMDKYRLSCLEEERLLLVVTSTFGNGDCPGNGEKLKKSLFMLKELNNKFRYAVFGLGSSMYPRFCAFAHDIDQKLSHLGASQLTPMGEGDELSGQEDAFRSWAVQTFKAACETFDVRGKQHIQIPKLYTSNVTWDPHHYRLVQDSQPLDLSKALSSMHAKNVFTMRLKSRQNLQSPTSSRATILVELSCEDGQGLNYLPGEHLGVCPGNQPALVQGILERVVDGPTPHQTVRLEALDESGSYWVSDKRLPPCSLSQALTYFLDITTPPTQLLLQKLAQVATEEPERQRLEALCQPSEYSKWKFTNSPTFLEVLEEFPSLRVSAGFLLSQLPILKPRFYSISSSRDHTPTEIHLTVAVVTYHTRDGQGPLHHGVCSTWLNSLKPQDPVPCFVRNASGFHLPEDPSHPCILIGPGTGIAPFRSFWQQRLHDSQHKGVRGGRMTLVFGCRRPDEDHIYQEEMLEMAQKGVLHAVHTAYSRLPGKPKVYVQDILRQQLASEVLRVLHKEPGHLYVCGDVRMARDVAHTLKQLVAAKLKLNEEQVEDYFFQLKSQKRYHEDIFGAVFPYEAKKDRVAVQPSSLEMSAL

| Compound | IC50 (Human Cartilage; Homo sapiens) [nM] | ED50 [1, 2] [mg/kg] | further results |
| --- | --- | --- | --- |
| 2S-amino-6-[(1-iminoethyl)amino]-N-(1H-tetrazol-5-yl)hexanamide, hydrate, dihydrochloride [Example 1] |  |  | i-NOS selectivity relative to NIL amide or NIL dimethylamide (i-NOS; compared with NIL amide or NIL dimethylamide): more selective |
| N=C1CCCC[C@H](CCCC[C@H](N)C(=O)O)N1 [Example X, (αS,2S)-α-aminohexahydro-7-imino-1H-azepine-2-hexanoic acid, trihydrate hydrochloride] |  |  | IC50 (Human Cartilage): < 10000 nM |
| CC(=N)NC/C(F)=C\CC[C@](C)(N)C(=O)O.Cl.Cl [Example HH, (2S,5E)-2-amino-2-methyl-6-fluoro-7-[(1-iminoethyl)amino]-5-heptenoic acid, dihydrochloride] | 400 | 0.4 |  |
| CC(=N)NCC(F)=CCC[C@H](N)C(=O)O (mixture of isomers) [Example B, (2S,5E/Z)-2-amino-6-fluoro-7-[(1-iminoethyl)amino]-5-heptenoic acid, dihydrochloride] | 200 |  |  |
| Cl.N=C1CCCC[C@@H](CCCC[C@H](N)C(=O)O)N1.O.O.O [Example W, (αS,2R)-α-aminohexahydro-7-imino-1H-azepine-2-hexanoic acid, trihydrate hydrochloride] | > 30000 | > 10 |  |
| CC(=N)NC/C=C\CC[C@](C)(N)C(=O)O [Example LL, (2S,5Z)-7-acetimidoylamino-2-amino-2-methyl-hept-5-enoic acid] | 800 | 0.3 |  |
| CC(=N)NC/C(F)=C\CC[C@H](N)C(=O)O [Example A, (2S,5E)-2-amino-6-fluoro-7-[(1-iminoethyl)amino]-5-heptenoic acid, dihydrochloride, monohydrate] | 100 | < 0.1 | ED50 ([1]; dihydrochloride, monohydrate): <0.1 mg/kg |
| Cl.N=C1CCCC[C@H](CCCC[C@@H](N)C(=O)O)N1.O.O.O [Example V, (αR,2S)-α-aminohexahydro-7-imino-1H-azepine-2-hexanoic acid, trihydrate hydrochloride] | < 10000 | < 3 |  |
| COC[C@](N)(CSCCNC(C)=N)C(=O)O [Example J, 2-[[[2-[(1-Iminoethyl)amino]ethyl]thio]methyl]-O-methyl-D-serine, dihydrochloride] |  |  | IC50 (Human Cartilage): 8200 nM |
| CC(=N)NC/C(F)=C\CC[C@H](N)C(=O)Nc1nnn[nH]1 [Example H, (2S,5E)-2-amino-6-fluoro-7-[(1-iminoethyl)amino]-N-(1H-tetrazol-5-yl) 5-heptenamide, dihydrochloride] |  | < 0.3 |  |
| CC(=NO)NC/C(F)=C\CC[C@H](N)C(=O)O [Example G, (2S,5E)-2-amino-6-fluoro-7-[(1-hydroximinoethyl)amino]-5-heptenoic acid] |  | < 0.1 | melting point: 198 to 200 °C |
| CC(=N)NCCCC[C@H](N)C(=O)Nc1nnn[nH]1 [Example NN, 2S-amino-6-[(1-iminoethyl)amino]-N-(1H-tetrazol-5-yl)hexanamide, hydrate, dihydrochloride] |  |  | i-NOS inhibitor potency relative to NIL amide or NIL dimethylamide (i-NOS; compared with 2S-amino-6-[(1-iminoethyl)amino]hexanamide (NIL amide) or NIL dimethylamide): more potent |
| N=C1CCCC[C@H](CCCC[C@H](N)C(=O)O)N1 [Example Z, (αS,2S)-α-aminohexahydro-7-imino-1H-azepine-2-hexanoic acid, trihydrate hydrochloride] | < 10000 |  | inhibition at 22 µM (hiNOS): 85% |
| CC(=N)NC/C(F)=C/CC[C@H](N)C(=O)O [Example D, (2S,5Z)-2-amino-6-fluoro-7-[(1-iminoethyl)amino]-5-heptenoic acid, trihydrochloride, dihydrate] | 2500 | > 10 |  |
